Results reported in paper PMC12152147, “DDB1 engagement defines the selectivity of S656 analogs for cyclin K degradation over CDK inhibition” (EMBO Reports, 2025).
Several values for one entry are separate records, joined by “and”; a condition that tells them apart may be missing. Equal entries are not always repeated. Where two headings read alike, the source gives them in different places.

Experiments:
[1] = target: T1, CDK1 (Homo sapiens, UniProt P06493); experiment: CDK1 in vitro kinase activity, single concentration 1 μM; type: biochemical; conditions: single concentration 1 μM
T1 construct: purchased BPS Bioscience 79597
T1 sequence (P06493 whole entry): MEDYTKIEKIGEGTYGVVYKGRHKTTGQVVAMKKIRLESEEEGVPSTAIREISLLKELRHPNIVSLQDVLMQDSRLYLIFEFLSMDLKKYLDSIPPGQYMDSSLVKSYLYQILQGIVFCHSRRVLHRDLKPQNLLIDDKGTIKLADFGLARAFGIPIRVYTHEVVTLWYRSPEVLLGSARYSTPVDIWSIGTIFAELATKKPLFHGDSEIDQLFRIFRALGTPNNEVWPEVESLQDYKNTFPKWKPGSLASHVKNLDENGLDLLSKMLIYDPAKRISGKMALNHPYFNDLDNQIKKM
T1 sequence (P14635 whole entry partner): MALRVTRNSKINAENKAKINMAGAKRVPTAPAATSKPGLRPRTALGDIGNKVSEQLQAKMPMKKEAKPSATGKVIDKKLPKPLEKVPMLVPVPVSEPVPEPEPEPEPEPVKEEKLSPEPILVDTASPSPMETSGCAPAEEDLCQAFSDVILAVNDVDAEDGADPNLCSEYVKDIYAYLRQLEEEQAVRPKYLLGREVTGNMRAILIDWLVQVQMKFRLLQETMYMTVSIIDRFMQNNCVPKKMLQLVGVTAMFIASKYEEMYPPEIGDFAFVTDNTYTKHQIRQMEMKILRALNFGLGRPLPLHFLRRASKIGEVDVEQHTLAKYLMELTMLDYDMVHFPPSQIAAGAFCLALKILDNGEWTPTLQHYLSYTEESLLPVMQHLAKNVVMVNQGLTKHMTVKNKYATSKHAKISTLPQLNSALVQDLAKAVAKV
Protocol: (§1) Kinase activity was assessed using the kinase assay kits from BPS Bioscience for CDK1, CDK9 and CDK12 with Kinase Glo MAX in duplicates. Compounds were tested at a single concentration of 1 μM for CDK1 and CDK9 activity, and in a dilution ranging from 0.64 nM to 50 μM for CDK12 activity. Chemiluminescence was read using the Neo Synergy BioTek plate reader.

[2] = tested on: OCI-AML5 cells; experiment: Dose-response proliferative assay in OCI-AML5 (4 days, CellTiterGlo); type: cell-based, H. sapiens; conditions: OCI-AML5 cells; read-out: IC50 in AML5
Summary of the method: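 Viability assessed after 4 days of compound exposure at 37 °C, 5% CO2. Compounds tested as 8 dilutions (1:4, 10 μM to 0.5 nM) on 300 OCI-AML5 cells/well grown in αMEM with 10% heat-inactivated FBS and 10 ng/mL GM-CSF.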

[3] = tested on: OCI-AML5 cells expressing shRNAs targeting CDK1, 2, 4, 7, 9, cyclin K; experiment: Dose response in OCI-AML5 expressing shRNAs targeting CDK1, 2, 4, 7, 9, cyclin K or control; type: cell-based, H. sapiens; conditions: for IC50: OCI-AML5, 4 days
[4] = target: T2, CDK9/CyclinT (Homo sapiens, UniProt P50750); experiment: CDK9/CyclinT in vitro kinase activity, single concentration 1 μM; type: biochemical; conditions: single concentration 1 μM
T2 construct: purchased BPS Bioscience 79628
T2 sequence (P50750 whole entry): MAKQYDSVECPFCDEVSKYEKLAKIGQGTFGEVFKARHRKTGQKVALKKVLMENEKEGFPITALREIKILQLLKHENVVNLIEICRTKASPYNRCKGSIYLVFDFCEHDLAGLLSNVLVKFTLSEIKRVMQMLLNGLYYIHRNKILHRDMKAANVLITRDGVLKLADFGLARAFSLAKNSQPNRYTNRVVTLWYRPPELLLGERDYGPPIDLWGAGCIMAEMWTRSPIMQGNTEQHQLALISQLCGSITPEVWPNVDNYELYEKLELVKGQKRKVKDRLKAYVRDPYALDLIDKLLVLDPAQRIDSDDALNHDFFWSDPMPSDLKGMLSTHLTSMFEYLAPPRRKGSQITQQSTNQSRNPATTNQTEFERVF
T2 sequence (O60563 whole entry partner): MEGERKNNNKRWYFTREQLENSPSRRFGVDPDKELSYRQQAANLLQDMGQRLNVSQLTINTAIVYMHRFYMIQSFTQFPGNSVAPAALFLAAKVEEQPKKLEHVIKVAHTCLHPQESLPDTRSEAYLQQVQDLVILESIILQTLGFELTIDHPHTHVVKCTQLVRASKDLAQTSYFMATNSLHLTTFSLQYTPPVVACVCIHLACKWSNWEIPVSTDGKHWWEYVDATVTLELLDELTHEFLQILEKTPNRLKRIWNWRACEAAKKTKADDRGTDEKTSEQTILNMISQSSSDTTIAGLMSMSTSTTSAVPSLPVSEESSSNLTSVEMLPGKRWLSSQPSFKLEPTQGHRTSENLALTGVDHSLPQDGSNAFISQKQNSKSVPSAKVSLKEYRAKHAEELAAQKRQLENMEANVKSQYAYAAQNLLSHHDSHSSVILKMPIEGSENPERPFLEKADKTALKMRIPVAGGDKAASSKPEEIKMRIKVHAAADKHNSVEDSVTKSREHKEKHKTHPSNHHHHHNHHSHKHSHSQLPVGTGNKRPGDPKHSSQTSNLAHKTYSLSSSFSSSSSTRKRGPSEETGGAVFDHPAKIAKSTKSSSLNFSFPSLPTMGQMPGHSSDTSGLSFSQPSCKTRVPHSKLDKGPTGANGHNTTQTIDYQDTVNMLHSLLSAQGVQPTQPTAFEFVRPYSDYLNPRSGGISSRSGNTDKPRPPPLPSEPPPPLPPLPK
Protocol: as §1

[5] = tested on: OCI-AML5 cells expressing shRNA targeting CUL4A or CUL4B; experiment: Dose response in OCI-AML5 expressing shRNAs targeting CUL4A, CUL4B or control; type: cell-based, H. sapiens
[6] = tested on: primary AML specimens; experiment: Dose-response assays in primary AML specimens (6 days, CellTiterGlo); type: cell-based, human; conditions: 6 days, read-out: IC50
Summary of the method: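 Primary AML cells in IMDM/15% BIT with SCF, FLT3L, IL3, G-CSF, SR1 and UM729 were exposed to 8-point 1:4 dilutions (10 μM to 0.5 nM) for 6 days. Viability came from CellTiterGlo luminescence, with % inhibition versus DMSO (0.1%) fitted by nonlinear regression.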

[7] = tested on: cyclin KeGFP; experiment: Cyclin KeGFP reporter system (eGFP/mCherry MFI by flow cytometry);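 for % degradation cyclin K-eGFP: 10 μM compound for 3 h relative to DMSO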; type: cell-based, H. sapiens; conditions: for MFI of cyclin KeGFP over mCherry: OCI-AML5 G7 clone, 3 h, 10 μM, normalized to DMSO (=100)
Summary of the method: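 Degradation read as eGFP-to-mCherry MFI ratio relative to DMSO controls, from flow cytometry of the selected G7 clone of OCI-AML5 cells transduced with the cyclin KeGFP reporter.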

[8] = target: T3, CDK12/Cyclin K (Homo sapiens, UniProt Q9NYV4); experiment: CDK12/CyclinK in vitro kinase assay (BPS kit, Kinase Glo MAX); type: biochemical; conditions: for in vitro inhibition of CDK12/Cyclin K activity: in % (unit assumed); for IC50: read-out: IC50, in vitro inhibition of CDK12/Cyclin K activity
T3 construct: purchased BPS Bioscience 78298
T3 sequence (Q9NYV4 whole entry): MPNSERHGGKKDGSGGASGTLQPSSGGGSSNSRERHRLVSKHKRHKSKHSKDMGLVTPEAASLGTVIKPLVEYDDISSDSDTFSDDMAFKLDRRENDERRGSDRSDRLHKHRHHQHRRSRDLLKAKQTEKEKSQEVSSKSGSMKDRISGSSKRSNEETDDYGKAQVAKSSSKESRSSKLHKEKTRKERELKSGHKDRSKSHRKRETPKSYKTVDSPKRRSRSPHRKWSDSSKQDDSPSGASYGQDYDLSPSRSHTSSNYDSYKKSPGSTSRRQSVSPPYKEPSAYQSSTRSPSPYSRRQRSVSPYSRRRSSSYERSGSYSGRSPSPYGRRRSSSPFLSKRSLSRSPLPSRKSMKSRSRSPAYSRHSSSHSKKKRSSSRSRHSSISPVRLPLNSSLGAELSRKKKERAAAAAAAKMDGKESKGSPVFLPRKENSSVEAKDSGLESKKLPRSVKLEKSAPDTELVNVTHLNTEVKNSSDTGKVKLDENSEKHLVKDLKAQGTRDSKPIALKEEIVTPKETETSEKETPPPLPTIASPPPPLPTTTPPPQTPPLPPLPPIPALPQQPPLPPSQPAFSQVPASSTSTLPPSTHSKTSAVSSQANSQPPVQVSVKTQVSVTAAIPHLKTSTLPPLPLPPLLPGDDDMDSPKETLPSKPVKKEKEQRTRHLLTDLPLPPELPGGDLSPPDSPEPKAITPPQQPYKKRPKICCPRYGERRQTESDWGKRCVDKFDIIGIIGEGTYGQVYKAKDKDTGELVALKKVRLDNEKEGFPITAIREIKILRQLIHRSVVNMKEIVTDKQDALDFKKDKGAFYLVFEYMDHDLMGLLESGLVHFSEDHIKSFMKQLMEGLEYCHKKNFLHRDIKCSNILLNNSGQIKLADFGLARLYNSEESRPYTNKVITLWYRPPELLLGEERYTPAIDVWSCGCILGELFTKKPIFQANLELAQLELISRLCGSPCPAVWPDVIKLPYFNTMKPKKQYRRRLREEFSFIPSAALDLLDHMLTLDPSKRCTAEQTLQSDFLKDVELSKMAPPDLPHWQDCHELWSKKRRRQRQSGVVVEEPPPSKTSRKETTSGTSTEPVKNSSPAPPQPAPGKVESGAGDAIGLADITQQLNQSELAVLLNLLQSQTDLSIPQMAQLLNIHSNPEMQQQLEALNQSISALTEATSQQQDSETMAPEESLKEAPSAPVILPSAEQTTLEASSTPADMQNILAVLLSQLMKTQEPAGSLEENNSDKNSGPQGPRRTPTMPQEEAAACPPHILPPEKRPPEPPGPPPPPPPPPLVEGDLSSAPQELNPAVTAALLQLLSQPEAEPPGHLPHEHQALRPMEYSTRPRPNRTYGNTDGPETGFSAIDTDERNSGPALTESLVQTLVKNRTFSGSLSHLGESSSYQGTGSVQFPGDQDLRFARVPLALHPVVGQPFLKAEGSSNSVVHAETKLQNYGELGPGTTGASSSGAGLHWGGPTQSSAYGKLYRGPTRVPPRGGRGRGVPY
T3 sequence (O75909 whole entry partner): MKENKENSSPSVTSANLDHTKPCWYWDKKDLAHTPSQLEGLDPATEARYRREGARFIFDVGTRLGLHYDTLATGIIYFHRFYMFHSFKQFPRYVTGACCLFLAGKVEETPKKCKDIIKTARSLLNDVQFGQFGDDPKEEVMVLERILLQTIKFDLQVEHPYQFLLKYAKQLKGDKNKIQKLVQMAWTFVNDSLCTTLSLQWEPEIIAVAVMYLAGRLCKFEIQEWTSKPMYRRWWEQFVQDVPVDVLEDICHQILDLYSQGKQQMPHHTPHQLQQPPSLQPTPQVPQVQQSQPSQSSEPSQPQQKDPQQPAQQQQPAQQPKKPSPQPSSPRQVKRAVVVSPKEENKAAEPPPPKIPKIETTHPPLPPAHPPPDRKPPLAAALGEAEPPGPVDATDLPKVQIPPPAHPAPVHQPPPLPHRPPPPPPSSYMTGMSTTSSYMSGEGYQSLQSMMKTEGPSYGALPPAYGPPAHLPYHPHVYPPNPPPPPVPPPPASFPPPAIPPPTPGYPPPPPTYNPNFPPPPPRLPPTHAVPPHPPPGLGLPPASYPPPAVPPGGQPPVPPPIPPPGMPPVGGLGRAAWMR
Protocol: as §1

Structure (SMILES): Cc1cccc(Nc2nc(CC(=O)Nc3ncc(C)s3)cs2)n1 [HQ461]
- % CDK1 inhibition [1]: 0%
- IC50 [2]: 1070 nM
- IC50 ([3]; read-out: IC50, sh CDK1): 1500 nM and 2300 nM and 2010 nM
- IC50 ([3]; read-out: IC50, sh CDK2): 1310 nM and 1750 nM and 2460 nM
- IC50 ([3]; read-out: IC50, sh CDK4): 1240 nM and 1300 nM and 1980 nM
- IC50 ([3]; read-out: IC50, sh CDK7): 1090 nM and 1800 nM and 1930 nM
- IC50 ([3]; read-out: IC50, sh CDK9): 1110 nM and 1360 nM and 1320 nM
- IC50 ([3]; read-out: IC50, sh Cyclin K): 429 nM and 562 nM and 546 nM
- IC50 ([3]; read-out: IC50, sh ctrl): 1070 nM and 1220 nM and 1040 nM
- Class ([3]; class from shRNA IC50 profile and cyclin K-eGFP degradation): 1
- % CDK9 inhibition [4]: 0%
- Ratio shCUL4A/shCTRL ([5]; ratio of IC50 in shCUL4A vs shCTRL OCI-AML5 cells): 4.25
- IC50 ([6]; primary AML specimen 03H109): 883 nM
- IC50 ([6]; primary AML specimen 04H055): 2010 nM
- IC50 ([6]; primary AML specimen 04H096): 1220 nM
- IC50 ([6]; primary AML specimen 04H138): 2260 nM
- IC50 ([6]; primary AML specimen 05H113): 974 nM
- IC50 ([6]; primary AML specimen 05H149): 1170 nM
- IC50 ([6]; primary AML specimen 05H193): 1260 nM
- IC50 ([6]; primary AML specimen 06H088): 1320 nM
- IC50 ([6]; primary AML specimen 06H117): 1200 nM
- IC50 ([6]; primary AML specimen 06H151): 677 nM
- IC50 ([6]; primary AML specimen 07H003): 2350 nM
- IC50 ([6]; primary AML specimen 07H131): 2900 nM
- IC50 ([6]; primary AML specimen 07H144): 983 nM
- IC50 ([6]; primary AML specimen 07H155): 2460 nM
- IC50 ([6]; primary AML specimen 08H018): 2240 nM
- IC50 ([6]; primary AML specimen 08H021): 1030 nM
- IC50 ([6]; primary AML specimen 08H056): 2300 nM
- IC50 ([6]; primary AML specimen 08H063): 2420 nM
- IC50 ([6]; primary AML specimen 08H085): 1050 nM
- IC50 ([6]; primary AML specimen 08H108): 2180 nM
- IC50 ([6]; primary AML specimen 08H118): 873 nM
- IC50 ([6]; primary AML specimen 09H016): 869 nM
- IC50 ([6]; primary AML specimen 09H070): 2340 nM
- IC50 ([6]; primary AML specimen 10H014): 529 nM
- IC50 ([6]; primary AML specimen 10H046): 1050 nM
- IC50 ([6]; primary AML specimen 10H107): 1400 nM
- IC50 ([6]; primary AML specimen 10H127): 1920 nM
- IC50 ([6]; primary AML specimen 10H161): 1220 nM
- IC50 ([6]; primary AML specimen 10H174): 950 nM
- IC50 ([6]; primary AML specimen 11H008): 1540 nM
- IC50 ([6]; primary AML specimen 11H019): 1320 nM
- IC50 ([6]; primary AML specimen 11H170): 3060 nM
- IC50 ([6]; primary AML specimen 11H217): 1690 nM
- IC50 ([6]; primary AML specimen 11H232): 1460 nM
- IC50 ([6]; primary AML specimen 12H033): 2450 nM
- IC50 ([6]; primary AML specimen 12H055): 1470 nM
- IC50 ([6]; primary AML specimen 12H148): 1880 nM
- IC50 ([6]; primary AML specimen 13H053): 2280 nM
- IC50 ([6]; primary AML specimen 15H045): 931 nM
- IC50 ([6]; primary AML specimen 17H065): 1420 nM
- MFI of cyclin KeGFP over mCherry [7]: 20.9 and 23.4 and 22.9 and 21.1 and 21.0
- % degradation cyclin K-eGFP ([7]; cyclin K-eGFP reporter): 79%
- in vitro inhibition of CDK12/Cyclin K activity ([8]; Log10 (uM) 1.69897): 45.8 and 46.66 and 37.27
- IC50 [8]: > 50000 nM

Structure (SMILES): CN(C)C/C=C/C(=O)Nc1ccc(C(=O)N2CCC[C@@H](Nc3ncc(Cl)c(-c4c[nH]c5ccccc45)n3)C2)cc1 [THZ531]
- potency upon CUL4A or CUL4B downregulation (for SNS-032, THZ531 also DDB1 depletion) ([5]; OCI-AML5, 4 days): remained unaffected
- IC50 ([6]; Homo sapiens, 144 h, primary AML specimen 03H109): 48.9 nM
- IC50 ([6]; Homo sapiens, 144 h, primary AML specimen 04H055): 45.2 nM
- IC50 ([6]; Homo sapiens, 144 h, primary AML specimen 04H096): 44.4 nM
- IC50 ([6]; Homo sapiens, 144 h, primary AML specimen 04H138): 70.6 nM
- IC50 ([6]; Homo sapiens, 144 h, primary AML specimen 05H113): 70.4 nM
- IC50 ([6]; Homo sapiens, 144 h, primary AML specimen 05H149): 411 nM
- IC50 ([6]; Homo sapiens, 144 h, primary AML specimen 05H193): 73.1 nM
- IC50 ([6]; Homo sapiens, 144 h, primary AML specimen 06H088): 50 nM
- IC50 ([6]; Homo sapiens, 144 h, primary AML specimen 06H117): 42.8 nM
- IC50 ([6]; Homo sapiens, 144 h, primary AML specimen 06H151): 103 nM
- IC50 ([6]; Homo sapiens, 144 h, primary AML specimen 07H003): 49.5 nM
- IC50 ([6]; Homo sapiens, 144 h, primary AML specimen 07H131): 734 nM
- IC50 ([6]; Homo sapiens, 144 h, primary AML specimen 07H144): 53.8 nM
- IC50 ([6]; Homo sapiens, 144 h, primary AML specimen 07H155): 125 nM
- IC50 ([6]; Homo sapiens, 144 h, primary AML specimen 08H018): 292 nM
- IC50 ([6]; Homo sapiens, 144 h, primary AML specimen 08H021): 27.7 nM
- IC50 ([6]; Homo sapiens, 144 h, primary AML specimen 08H056): 170 nM
- IC50 ([6]; Homo sapiens, 144 h, primary AML specimen 08H063): 67.2 nM
- IC50 ([6]; Homo sapiens, 144 h, primary AML specimen 08H085): 42.1 nM
- IC50 ([6]; Homo sapiens, 144 h, primary AML specimen 08H108): 48.5 nM
- IC50 ([6]; Homo sapiens, 144 h, primary AML specimen 08H118): 596 nM
- IC50 ([6]; Homo sapiens, 144 h, primary AML specimen 09H016): 121 nM
- IC50 ([6]; Homo sapiens, 144 h, primary AML specimen 09H070): 155 nM
- IC50 ([6]; Homo sapiens, 144 h, primary AML specimen 10H014): 237 nM
- IC50 ([6]; Homo sapiens, 144 h, primary AML specimen 10H046): 319 nM
- IC50 ([6]; Homo sapiens, 144 h, primary AML specimen 10H107): 164 nM
- IC50 ([6]; Homo sapiens, 144 h, primary AML specimen 10H127): 48.2 nM
- IC50 ([6]; Homo sapiens, 144 h, primary AML specimen 10H161): 46.6 nM
- IC50 ([6]; Homo sapiens, 144 h, primary AML specimen 10H174): 146 nM
- IC50 ([6]; Homo sapiens, 144 h, primary AML specimen 11H008): 47.1 nM
- IC50 ([6]; Homo sapiens, 144 h, primary AML specimen 11H019): 174 nM
- IC50 ([6]; Homo sapiens, 144 h, primary AML specimen 11H170): 798 nM
- IC50 ([6]; Homo sapiens, 144 h, primary AML specimen 11H217): 46.2 nM
- IC50 ([6]; Homo sapiens, 144 h, primary AML specimen 11H232): 296 nM
- IC50 ([6]; Homo sapiens, 144 h, primary AML specimen 12H033): 127 nM
- IC50 ([6]; Homo sapiens, 144 h, primary AML specimen 12H055): 51.7 nM
- IC50 ([6]; Homo sapiens, 144 h, primary AML specimen 12H148): 242 nM
- IC50 ([6]; Homo sapiens, 144 h, primary AML specimen 13H053): 160 nM
- IC50 ([6]; Homo sapiens, 144 h, primary AML specimen 15H045): 273 nM
- IC50 ([6]; Homo sapiens, 144 h, primary AML specimen 17H065): 1080 nM
- MFI of cyclin KeGFP over mCherry [7]: 103.0 and 93.3 and 92.2 and 93.5
- in vitro inhibition of CDK12/Cyclin K activity ([8]; Log10 (uM) 0.30103): 95.76 and 74.16 and 142.36
- in vitro inhibition of CDK12/Cyclin K activity ([8]; Log10 (uM) -1.09691): 64.02 and 71.5 and 108.97
- in vitro inhibition of CDK12/Cyclin K activity ([8]; Log10 (uM) -1.79588): 50.36 and 51.42 and 41.9
- in vitro inhibition of CDK12/Cyclin K activity ([8]; Log10 (uM) -2.49485): 37.5 and 37.15 and 28.34
- IC50 [8]: 29 nM
